Experimental data reported in US5026836A, “6-sulfenamide, 6-sulfinamide and 6-sulfonamide purines, purine nucleosides, purine nucleotides, pharmaceutical compositions, and processes of making” (priority 1988, dated 1991).
Where “and” joins values, the source holds several entries; their conditions need not be identical. Equal entries are not always repeated. Entries after “also recorded” stand apart in the source; their conditions may differ.

What was measured:
L1210 cells = L1210 cells surviving treatment (% of original inoculum); type: in vivo, mouse
Excerpt: Values below 25% are considered capable of producing effective therapy, those below 10% are considered good and those below 5% are considered very good. This expresses the percent of the cells which survived treatment based upon the original cells in the inoculum. Those tests expressed as increases in life span (% ILS) indicate the increased life span of the drug treated group compared to a control group.
As an indicator of reproducible activity, compounds of the invention and other known cancer chemotherapeutic agents were screened against L1210 lymphoid leukemia in vivo utilizing the mouse as a test species. Normal NCI protocols for this test require 10^5 seed cells of the L1210 cell line. However for the purposes of tests with the L1210 cell line in testing the compounds of the invention for antitumor activity, a log greater, i.e. 10^6 cells were utilized.
Tables 2-a and 2-b illustrate a dose response for Compound 19 against L1210 inoculated mice expressed as both increased life span compared to control and as the number of cells of the original inoculum surviving drug treatment. As is evident from the various regimens of drug treatment shown in Tables 2-a and 2-b, effective therapeutic effects are noted and a dose response to Compound 19 is evident. […] Cytosine Arabinoside must be given every three hours. Test results are given utilizing standard protocols based on mean survival time and are expressed as T/C percentages (treated animals/control animals).

L1210/Compound 18 cells = assay: Compound 18 resistant L1210 cells surviving treatment; type: in vivo, mouse
Description: In Examples G through K Compound 19 was tested against L1210 cell lines which had developed resistance to other known cancer chemotherapeutic agents.
In Example K, the results of which are shown in Table 11 below, Compound 19 was tested against drug resistant cell lines developed against Compound 18. […]

B-16 melanoma = assay: Activity against B-16 melanoma; settings: in vivo
[1] = Toxicity / maximum tolerated dosage in mice; type: in vivo; settings: ip 104 mg/kg/inj, bid days 1,4,7; 11 CDF1 mice with Colon 26

## Nc1nc([S+](N)[O-])c2ncn([C@@H]3O[C@H](CO)[C@@H](O)[C@H]3O)c2n1 (mixture of isomers) [Compound 19, 2-amino-9-β-D-ribofuranosyl-9H-purine-6-sulfinamide]
L1210 cells; 22 mg/kg, bid days 1,3,5,7
  L1210 cells surviving day 7 treatment (% of original inoculum): 594%
L1210 cells; 22 mg/kg, bid days 1,4,7
  L1210 cells surviving day 7 treatment (% of original inoculum): 9211%
L1210 cells; 22 mg/kg, bid days 1-7
  L1210 cells surviving day 7 treatment (% of original inoculum): 343%
L1210 cells; 37 mg/kg, bid days 1,3,5,7
  L1210 cells surviving day 7 treatment (% of original inoculum): 17%
L1210 cells; 37 mg/kg, bid days 1,4,7
  L1210 cells surviving day 7 treatment (% of original inoculum): 87%
L1210 cells; 37 mg/kg, bid days 1-7
  L1210 cells surviving day 7 treatment (% of original inoculum): 22%
L1210 cells; 37 mg/kg, qd days 1,3,5,7
  L1210 cells surviving day 7 treatment (% of original inoculum): 3077%
L1210 cells; 37 mg/kg, qd days 1,4,7
  L1210 cells surviving day 7 treatment (% of original inoculum): 15936%
L1210 cells; 37 mg/kg, qd days 1-7
  L1210 cells surviving day 7 treatment (% of original inoculum): 115%
L1210 cells; 62 mg/kg, bid days 1,3,5,7
  L1210 cells surviving day 7 treatment (% of original inoculum): 0.3%
L1210 cells; 62 mg/kg, bid days 1,4,7
  L1210 cells surviving day 7 treatment (% of original inoculum): 5.6%
L1210 cells; 62 mg/kg, qd days 1,3,5,7
  L1210 cells surviving day 7 treatment (% of original inoculum): 50%
L1210 cells; 62 mg/kg, qd days 1,4,7
  L1210 cells surviving day 7 treatment (% of original inoculum): 594%
L1210 cells; 62 mg/kg, qd days 1-7
  L1210 cells surviving treatment (% of original inoculum): 13%
L1210 cells; 104 mg/kg, qd days 1,3,5,7
  L1210 cells surviving treatment (% of original inoculum): 17%
L1210 cells; 104 mg/kg, qd days 1,4,7
  L1210 cells surviving treatment (% of original inoculum): 29%
L1210 cells; 173 mg/kg, qd days 1,3,5,7
  L1210 cells surviving treatment (% of original inoculum): 0.2%
L1210 cells; 173 mg/kg, qd days 1,4,7
  L1210 cells surviving treatment (% of original inoculum): 1.1%
L1210 cells; ip 37 mg/kg/inj, bid days 1,3,5,7
  RCP (Residual Cell Population): .32
L1210 cells; ip 62 mg/kg, bid day 1
  L1210 cells surviving (% of day zero inoculum): 0.8%
L1210 cells; ip 62 mg/kg, qd day 1, 62 mg/kg
  L1210 cells surviving (% of day zero inoculum): 0.8% and 8.5%
L1210 cells; ip 62 mg/kg, tid day 1
  L1210 cells surviving (% of day zero inoculum): 0.4%
L1210 cells; ip 62 mg/kg/inj, bid days 1,4,7
  RCP (Residual Cell Population): .14
L1210 cells; ip 104 mg/kg, qd day 1
  L1210 cells surviving (% of day zero inoculum): 5.4%
L1210 cells; ip 104 mg/kg/day, qd days 1-7, 1 long term survivor not included
  L1210 cells surviving treatment (% of day zero inoculum): 0.04%
L1210 cells; ip 173 mg/kg, qd day 1
  L1210 cells surviving (% of day zero inoculum): 1.4%
L1210 cells; oral 37 mg/kg/inj, bid days 1,3,5,7
  RCP (Residual Cell Population): 3.73
L1210 cells; oral 62 mg/kg/inj, bid days 1,4,7
  RCP (Residual Cell Population): 8.48
L1210/Compound 18 cells; ip 62 mg/kg/day, bid day 1
  L1210/Compound 18 cells surviving (% of day zero inoculum): 27.4%
L1210/Compound 18 cells; ip 62 mg/kg/day, qd day 1
  L1210/Compound 18 cells surviving (% of day zero inoculum): 100.0%
L1210/Compound 18 cells; ip 104 mg/kg/day, qd day 1
  L1210/Compound 18 cells surviving (% of day zero inoculum): 17.9%
L1210/Compound 18 cells; ip 173 mg/kg/day, qd day 1
  L1210/Compound 18 cells surviving (% of day zero inoculum): 7.5%
L1210/Compound 18 cells; mouse, in vivo
  activity against Compound 18 resistant L1210: effective against those L1210 cell lines which have developed resistance against Compound 18; also recorded: active against cells which developed resistance to Compound 18
B-16 melanoma
  activity against B-16 melanoma: No activity
[1]
  toxic deaths: 6
